Test results: PubChem BioAssay AID1963445 (Molecular Pharmacology Branch, DTP, NCI, 2024)

System: MCF7 complex spheroid growth, % test/control
Experiment: Anticancer human tumor MCF7 cell line growth inhibition [Asc];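 further: spheroids exposed to compounds for 7 days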;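 on viability, T/C: 100% = DMSO vehicle control wells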
Details: for IC50: curve of first compound; for viability, T/C: stronger effect = lower value; active means viability on the fitted dose curve at most 10% of control; inactive means the rest
In short: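 Stromal components (HUVEC and hMSC) are co-assembled with the cancer cells into multicellular spheroids. Drugs are then added singly or paired, at concentrations falling by half-log increments from a clinically achievable maximum, capped at 10 microM without known Cmax.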

[1] = second compound 0.0316 µM, first compound 0.0316 µM
[2] = second compound 0.0316 µM, first compound 0.1 µM
[3] = second compound 0.0316 µM, first compound 0.316 µM
[4] = second compound 0.0316 µM, first compound 1 µM
[5] = second compound 0.0316 µM, first compound 3.16 µM
[6] = second compound 0.0316 µM, first compound 10 µM
[7] = second compound 0.1 µM, first compound 0.0316 µM
[8] = second compound 0.1 µM, first compound 0.1 µM
[9] = second compound 0.1 µM, first compound 0.316 µM
[10] = second compound 0.1 µM, first compound 1 µM
[11] = second compound 0.1 µM, first compound 3.16 µM
[12] = second compound 0.1 µM, first compound 10 µM
[13] = second compound 0.316 µM, first compound 0.0316 µM
[14] = second compound 0.316 µM, first compound 0.1 µM
[15] = second compound 0.316 µM, first compound 0.316 µM
[16] = second compound 0.316 µM, first compound 1 µM
[17] = second compound 0.316 µM, first compound 3.16 µM
[18] = second compound 0.316 µM, first compound 10 µM
[19] = second compound 1 µM, first compound 0.0316 µM
[20] = second compound 1 µM, first compound 0.1 µM
[21] = second compound 1 µM, first compound 0.316 µM
[22] = second compound 1 µM, first compound 1 µM
[23] = second compound 1 µM, first compound 3.16 µM
[24] = second compound 1 µM, first compound 10 µM
[25] = second compound 3.16 µM, first compound 0.0316 µM
[26] = second compound 3.16 µM, first compound 0.1 µM
[27] = second compound 3.16 µM, first compound 0.316 µM
[28] = second compound 3.16 µM, first compound 1 µM
[29] = second compound 3.16 µM, first compound 3.16 µM
[30] = second compound 3.16 µM, first compound 10 µM
[31] = second compound 10 µM, first compound 0.0316 µM
[32] = second compound 10 µM, first compound 0.1 µM
[33] = second compound 10 µM, first compound 0.316 µM
[34] = second compound 10 µM, first compound 1 µM
[35] = second compound 10 µM, first compound 3.16 µM
[36] = second compound 10 µM, first compound 10 µM

C=C(F)C(=O)N1CCN(c2nc(OCC3CCCN3C)nc3c2CCN(c2cccc4cccc(Cl)c24)C3)CC1CC#N (stereo unspecified) + Cc1c(S(C)(=O)=O)c(-c2cc(F)cc(N3CCN(c4ccc(NS(=O)(=O)c5ccc(NC(CCN6CCC(C(=O)OCCCP(=O)(O)O)CC6)CSc6ccccc6)c(S(=O)(=O)C(F)(F)F)c5)cc4)CC3)c2)c(-c2ccc(Cl)cc2)n1C(C)C
inactive: viability, T/C [1] 105% | viability, T/C [2] 108% | viability, T/C [3] 87.6% | viability, T/C [4] 75.2% | viability, T/C [5] 60.7% | viability, T/C [7] 107% | viability, T/C [8] 90.5% | viability, T/C [9] 97.3% | viability, T/C [10] 95.8% | viability, T/C [11] 72.7% | viability, T/C [13] 103% | viability, T/C [14] 88.8% | viability, T/C [15] 86.8% | viability, T/C [16] 87% | viability, T/C [17] 48% | viability, T/C [19] 96.3% | viability, T/C [20] 82.6% | viability, T/C [21] 87.1% | viability, T/C [22] 81.5% | viability, T/C [23] 61.8% | viability, T/C [25] 97.9% | viability, T/C [26] 86% | viability, T/C [27] 84.2% | viability, T/C [28] 81.7% | viability, T/C [29] 50.8% | viability, T/C [31] 200% | viability, T/C [32] 167% | viability, T/C [33] 231% | viability, T/C [34] 223% | viability, T/C [35] 66.7%
3 µM: IC50 (second compound 0.316 µM)
active: viability, T/C [6] 0.25% | viability, T/C [12] 0.14% | viability, T/C [18] 0.13% | viability, T/C [24] 0.17% | viability, T/C [30] 0.17% | viability, T/C [36] 0.3%
3.44 µM: IC50 (second compound 0.0316 µM)
4.23 µM: IC50 (second compound 10 µM)
3.29 µM: IC50 (second compound 3.16 µM)
4.54 µM: IC50 (second compound 0.1 µM)
3.92 µM: IC50 (second compound 1 µM)

C=CC(=O)N1CCN(c2nc(=O)n(-c3c(C)ccnc3C(C)C)c3nc(-c4c(O)cccc4F)c(F)cc23)C(C)C1 (stereo unspecified) + Cc1c(S(C)(=O)=O)c(-c2cc(F)cc(N3CCN(c4ccc(NS(=O)(=O)c5ccc(NC(CCN6CCC(C(=O)OCCCP(=O)(O)O)CC6)CSc6ccccc6)c(S(=O)(=O)C(F)(F)F)c5)cc4)CC3)c2)c(-c2ccc(Cl)cc2)n1C(C)C
> 10 µM: IC50 (second compound 0.0316 µM) | IC50 (second compound 0.1 µM) | IC50 (second compound 0.316 µM) | IC50 (second compound 1 µM) | IC50 (second compound 3.16 µM) | IC50 (second compound 10 µM)
inactive: viability, T/C [1] 101% | viability, T/C [2] 105% | viability, T/C [3] 99.7% | viability, T/C [4] 95.5% | viability, T/C [5] 112% | viability, T/C [6] 85.8% | viability, T/C [7] 92.9% | viability, T/C [8] 89.6% | viability, T/C [9] 89% | viability, T/C [10] 110% | viability, T/C [11] 92.3% | viability, T/C [12] 87.4% | viability, T/C [13] 101% | viability, T/C [14] 92.7% | viability, T/C [15] 109% | viability, T/C [16] 90.1% | viability, T/C [17] 89.5% | viability, T/C [18] 81.3% | viability, T/C [19] 87.2% | viability, T/C [20] 91.4% | viability, T/C [21] 102% | viability, T/C [22] 97.4% | viability, T/C [23] 101% | viability, T/C [24] 89.9% | viability, T/C [25] 92.9% | viability, T/C [26] 94.9% | viability, T/C [27] 103% | viability, T/C [28] 94.1% | viability, T/C [29] 89.5% | viability, T/C [30] 86.1% | viability, T/C [31] 222% | viability, T/C [32] 143% | viability, T/C [33] 171% | viability, T/C [34] 195% | viability, T/C [35] 233% | viability, T/C [36] 168%

CCN1C(C(=O)NC23CCC(C(=O)O)(CC2)CC3)C(c2cccc(Cl)c2F)C2(C(=O)Nc3cc(Cl)ccc32)C12CCCCC2 (stereo unspecified) + Cc1c(S(C)(=O)=O)c(-c2cc(F)cc(N3CCN(c4ccc(NS(=O)(=O)c5ccc(NC(CCN6CCC(C(=O)OCCCP(=O)(O)O)CC6)CSc6ccccc6)c(S(=O)(=O)C(F)(F)F)c5)cc4)CC3)c2)c(-c2ccc(Cl)cc2)n1C(C)C
0.11 µM: IC50 (second compound 0.1 µM)
0.0603 µM: IC50 (second compound 3.16 µM)
active: viability, T/C (second compound 3.16 µM, first compound 3 µM) 11.5%
inactive: viability, T/C (second compound 0.0316 µM, first compound 0.00949 µM) 96.9% | viability, T/C (second compound 0.0316 µM, first compound 0.03 µM) 97.5% | viability, T/C (second compound 0.0316 µM, first compound 0.0949 µM) 48.9% | viability, T/C (second compound 0.0316 µM, first compound 0.3 µM) 38.3% | viability, T/C (second compound 0.0316 µM, first compound 0.949 µM) 22.7% | viability, T/C (second compound 0.0316 µM, first compound 3 µM) 12.1% | viability, T/C (second compound 0.1 µM, first compound 0.00949 µM) 108% | viability, T/C (second compound 0.1 µM, first compound 0.03 µM) 93.7% | viability, T/C (second compound 0.1 µM, first compound 0.0949 µM) 46% | viability, T/C (second compound 0.1 µM, first compound 0.3 µM) 34.5% | viability, T/C (second compound 0.1 µM, first compound 0.949 µM) 15.2% | viability, T/C (second compound 0.1 µM, first compound 3 µM) 11.4% | viability, T/C (second compound 0.316 µM, first compound 0.00949 µM) 95.2% | viability, T/C (second compound 0.316 µM, first compound 0.03 µM) 79.6% | viability, T/C (second compound 0.316 µM, first compound 0.0949 µM) 45% | viability, T/C (second compound 0.316 µM, first compound 0.3 µM) 28.9% | viability, T/C (second compound 0.316 µM, first compound 0.949 µM) 15% | viability, T/C (second compound 0.316 µM, first compound 3 µM) 9.79% | viability, T/C (second compound 1 µM, first compound 0.00949 µM) 91.9% | viability, T/C (second compound 1 µM, first compound 0.03 µM) 74.4% | viability, T/C (second compound 1 µM, first compound 0.0949 µM) 42.5% | viability, T/C (second compound 1 µM, first compound 0.3 µM) 33.4% | viability, T/C (second compound 1 µM, first compound 0.949 µM) 11.6% | viability, T/C (second compound 1 µM, first compound 3 µM) 14.9% | viability, T/C (second compound 3.16 µM, first compound 0.00949 µM) 97.9% | viability, T/C (second compound 3.16 µM, first compound 0.03 µM) 63.8% | viability, T/C (second compound 3.16 µM, first compound 0.0949 µM) 44.2% | viability, T/C (second compound 3.16 µM, first compound 0.3 µM) 18.8% | viability, T/C (second compound 3.16 µM, first compound 0.949 µM) 12.1% | viability, T/C (second compound 10 µM, first compound 0.00949 µM) 188% | viability, T/C (second compound 10 µM, first compound 0.03 µM) 153% | viability, T/C (second compound 10 µM, first compound 0.0949 µM) 30.6% | viability, T/C (second compound 10 µM, first compound 0.3 µM) 27.4% | viability, T/C (second compound 10 µM, first compound 0.949 µM) 12.2% | viability, T/C (second compound 10 µM, first compound 3 µM) 12.3%
0.0735 µM: IC50 (second compound 10 µM)
0.09 µM: IC50 (second compound 0.316 µM)
0.082 µM: IC50 (second compound 1 µM)
0.134 µM: IC50 (second compound 0.0316 µM)
